{
  "source": "patent EP0537575A1",
  "about": "“Hydrobromide of DC-89 derivative having antitumor activity” (KYOWA HAKKO KOGYO CO., LTD., priority 1991, dated 1993)",
  "key": {"Sarcoma 180 tumor": {"system": "Sarcoma 180 tumor", "assay": "Therapeutic effect against Sarcoma 180 tumor implanted subcutaneously in mice", "type": "in vivo, ddY-strain mice", "details": "Dose 0.70 mg/kg, intravenously, one day after implantation; tumor volume seven days after implantation", "procedure": "Five male ddY-strain mice each weighing 18 to 20 g were used for each group as test animals, and 5 × 10⁵ Sarcoma 180 tumor cells were implanted subcutaneously into the animals at the axilla. One day after the implantation, 0.2 ml of physiological saline containing a test compound at the concentration indicated in Table 1 was intravenously administered to each mouse. T/C [T: average tumor volume (mm³) of the group treated with the test compound, C: that of the control group which received an intravenous administration of 0.2 ml of physiological saline] was determined seven days after the implantation."}, "HeLaS₃ cells": {"system": "HeLaS₃ cells", "assay": "Growth inhibition test on HeLaS₃ cells (Neutral Red staining)", "type": "cell-based", "details": "Homo sapiens, HeLa, 72 hours culture, absorbance 550 nm, read-out: HeLaS₃ IC₅₀", "procedure": "HeLaS₃ cells suspended in MEM medium containing 10% fetal calf serum and 2 mM glutamine (hereinafter referred to as medium A) to a concentration of 3 × 10⁴ cells/ml were put into wells of a 96-well microtiter plate in an amount of 0.1 ml per well.\nAfter culturing at 37°C overnight in a CO₂-incubator, 0.05 ml of a test sample appropriately diluted with medium A was added to each well.\nThe cells were further cultured at 37°C for 72 hours in the CO₂-incubator and the culture supernatant was removed. The residue was washed once with phosphate buffered physiological saline (PBS), and 0.1 ml of a medium containing medium A and 0.02% Neutral Red was added to each well, followed by culturing at 37°C for one hour in the CO₂-incubator to stain the cells. After removal of the culture supernatant, the cells were washed once with physiological saline, and the dye was extracted with 0.001N HCl/30% ethanol. Absorbance of the extract at 550 nm was measured with a microplate reader. By comparing the absorbance of the extract of intact cells with those of the cells treated with the test compound at known concentrations, the concentration of the test compound which inhibited growth of the cells by 50% (IC₅₀) was determined."}, "[1]": {"assay": "Stability in solution for preparing a freeze-dried preparation (HPLC)", "type": "physicochemical", "details": "for Residual Rate: 1 mg/ml in water with 50 mg lactose and 0.5 mg citric acid per ml, 25°C", "procedure": "In 1 ml of distilled water was dissolved 50 mg of lactose and 0.5 mg of citric acid. Compound (I) or Compound (III) was dissolved in the solution to a concentration of 1 mg/ml. The test solution was poured in a vial, and kept in a thermostat at 25°C. The concentration of Compound (I) or Compound (III) in the solution was determined by High Performance Liquid Chromatography (HPLC) with the elapse of time. The concentration of each test compound in the test solution just after the dissolution was defined as 100 %. The residual rate (%) was calculated according to the following equation. [formula]"}, "[2]": {"system": "Staphylococcus epidermidis S1318", "assay": "Antibacterial activity, agar dilution method", "type": "cell-based", "details": "pH 7.0", "procedure": "(§1) Minimum inhibitory concentrations (MIC) of Compound (I) against various bacteria were determined by the agar dilution method (pH 7.0)."}, "[3]": {"system": "Bacillus subtilis ATCC6633", "assay": "Antibacterial activity, agar dilution method", "type": "cell-based", "details": "pH 7.0", "procedure": "as §1"}, "[4]": {"system": "Micrococcus luteus ATCC9341", "assay": "Antibacterial activity, agar dilution method", "type": "cell-based", "details": "pH 7.0", "procedure": "as §1"}, "[5]": {"system": "Staphylococcus aureus 6538-P", "assay": "Antibacterial activity, agar dilution method", "type": "cell-based", "details": "pH 7.0", "procedure": "as §1"}, "[6]": {"system": "Staphylococcus aureus 209-P", "assay": "Antibacterial activity, agar dilution method", "type": "cell-based", "details": "pH 7.0", "procedure": "as §1"}},
  "data": [
    {"smiles": "COC(=O)c1c(C)[nH]c2c(OC(=O)N3CCN(C)CC3)cc3c(c12)C(CBr)CN3C(=O)c1cc2cc(OC)c(OC)c(OC)c2[nH]1", "note": "(centres unmarked) [Compound (I)]", "values": [
      {"measurement": "Sarcoma 180 T/C", "setting": "Sarcoma 180 tumor", "result": 0.095},
      {"measurement": "IC50", "setting": "HeLaS₃ cells", "result": 31, "unit": "nM"},
      {"measurement": "Residual Rate", "setting": "[1]; Time 0 hr (defined as 100 %)", "result": 100, "unit": "%"},
      {"measurement": "Residual Rate", "setting": "[1]; Time 3 hr", "result": 99, "unit": "%"},
      {"measurement": "Residual Rate", "setting": "[1]; Time 6 hr", "result": 98, "unit": "%"},
      {"measurement": "stability in solution (in words)", "setting": "[1]; compared with Compound (III), results of Table 3", "result": "improved stability in solution"},
      {"measurement": "MIC", "setting": "[2]", "result": 6.25, "unit": "µg/mL"},
      {"measurement": "MIC", "setting": "[3]", "result": 6.25, "unit": "µg/mL"},
      {"measurement": "MIC", "setting": "[4]", "result": 25, "unit": "µg/mL"},
      {"measurement": "MIC", "setting": "[5]", "result": 6.25, "unit": "µg/mL"},
      {"measurement": "MIC", "setting": "[6]", "result": 6.25, "unit": "µg/mL"}
    ]}
  ]
}
